For 21 compounds, IC50 results are on record in patent US11739100B2, “2,3-dihydro-1h-imidazo{1,2-a}pyrimidin-5-one and this 1,2,3,4-tetrahydropyrimido{1,2-a}pyrimidin-6-one derivatives comprising a substituted morpholine, preparation thereof and pharmaceutical use thereof” (SANOFI, priority 2012, dated 2023).

The assay deals with T1, recombinant Vps34 (Homo sapiens, UniProt Q8NEB9).
T1 construct: purchased Invitrogen PV5126
In words: Phosphorylation of phosphatidylinositol (PI) by Vps34 in vitro, ADP detected by TR-FRET (HTRF Transcreener ADP). It counts as biochemical. The settings on record: 10 μM ATP, 55 μg/ml PI, approximately 3 nM Vps34, 1 hour at ambient temperature; absolute IC50, mean of two independent experiments; read-out: IC50 activity range. A general note: TR-FRET usually uses a lanthanide donor and a delayed reading to cut background.

T1 sequence (Q8NEB9 whole entry): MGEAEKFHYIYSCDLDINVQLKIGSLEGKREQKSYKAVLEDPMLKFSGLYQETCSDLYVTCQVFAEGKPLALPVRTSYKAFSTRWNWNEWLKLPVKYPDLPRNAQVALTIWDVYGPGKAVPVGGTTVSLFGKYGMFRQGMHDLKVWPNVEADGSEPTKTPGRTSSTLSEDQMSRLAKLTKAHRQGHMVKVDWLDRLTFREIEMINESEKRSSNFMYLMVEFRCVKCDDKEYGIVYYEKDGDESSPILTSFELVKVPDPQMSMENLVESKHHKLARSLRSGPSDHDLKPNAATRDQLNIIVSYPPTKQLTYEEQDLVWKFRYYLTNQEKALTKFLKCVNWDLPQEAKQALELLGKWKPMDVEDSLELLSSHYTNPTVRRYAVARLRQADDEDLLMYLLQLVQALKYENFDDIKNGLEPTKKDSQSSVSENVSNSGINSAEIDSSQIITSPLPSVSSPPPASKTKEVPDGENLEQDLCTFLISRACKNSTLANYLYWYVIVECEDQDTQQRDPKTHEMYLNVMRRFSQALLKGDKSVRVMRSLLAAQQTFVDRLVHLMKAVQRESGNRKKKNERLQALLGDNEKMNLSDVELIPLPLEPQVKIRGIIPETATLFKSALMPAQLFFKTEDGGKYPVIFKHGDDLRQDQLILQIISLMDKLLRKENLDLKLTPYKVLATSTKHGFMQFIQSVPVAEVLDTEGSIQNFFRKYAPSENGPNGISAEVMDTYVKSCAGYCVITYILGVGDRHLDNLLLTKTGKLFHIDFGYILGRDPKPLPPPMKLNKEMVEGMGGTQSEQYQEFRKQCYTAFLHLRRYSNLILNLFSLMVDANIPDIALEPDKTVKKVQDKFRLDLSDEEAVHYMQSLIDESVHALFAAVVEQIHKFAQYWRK

The term IC50 denotes the concentration that inhibits the measured activity by half. Regarding `C[C@@H]1COCCN1c1cc(=O)n2c(n1)N(c1ccncc1)[C@H](C(F)(F)F)CC2` [Example 198, (S)-2-((R)-3-Methyl-morpholin-4-yl)-9-pyridin-4-yl-8-trifluoromethyl-6,7,8,9-tetrahydro-pyrimido[1,2-a]-pyrimidin-4-one], the IC50 was < 0.01 µM.
For the compound `Cc1cc(CN2c3nc(N4[C@H](C)COC[C@H]4C)cc(=O)n3CC[C@H]2C(F)(F)F)on1` [Example 155, (S)-2-((3R,5R)-3,5-Dimethylmorpholin-4-yl)-9-(3-methyl-isoxazol-5-ylmethyl)-8-trifluoromethyl-6,7,8,9-tetrahydro-pyrimido[1,2-a]-pyrimidin-4-one], the IC50 is < 0.01 µM.
Regarding `C[C@@H]1COCCN1c1cc(=O)n2c(n1)N(CCOCC(F)(F)F)[C@H](C(F)(F)F)CC2` [Example 82, (S)-2-((R)-3-Methyl-morpholin-4-yl)-9-[2-(2,2,2-trifluoro-ethoxy)ethyl]-8-trifluoromethyl-6,7,8,9-tetrahydro-pyrimido[1,2-a]-pyrimidin-4-one], the IC50 is < 0.01 µM.
The figure for `C[C@@H]1COCCN1c1cc(=O)n2c(n1)N(Cc1ccc(Cl)cn1)[C@H](C(F)(F)F)CC2` [Example 86, (S)-9-(5-Chloro-pyridin-2-ylmethyl)-2-((R)-3-methyl-morpholin-4-yl)-8-trifluoromethyl-6,7,8,9-tetrahydro-pyrimido[1,2-a]-pyrimidin-4-one] is < 0.01 µM; for `C[C@H](O)CN1c2nc(N3CCOC[C@H]3C)c(F)c(=O)n2CC[C@H]1C(F)(F)F` [Example 8, (S)-3-Fluoro-9-((S)-2-hydroxypropyl)-2-((R)-3-methylmorpholin-4-yl)-8-trifluoromethyl-6,7,8,9-tetrahydro-pyrimido[1,2-a]-pyrimidin-4-one] it is < 0.01 µM; for `CC(=O)N1c2nc(N3CCOC[C@H]3C)cc(=O)n2CC[C@H]1C(F)(F)F` [Example 238, (S)-9-Acetyl-2-((R)-3-methylmorpholin-4-yl)-8-trifluoromethyl-6,7,8,9-tetrahydro-pyrimido[1,2-a]-pyrimidin-4-one] it is > 0.1 µM.
With `CC(C)Oc1cc(N2CC[C@H](C(F)(F)F)n3c2nc(N2CCOC[C@H]2C)cc3=O)ccn1` [Example 114, (R)-9-(2-Isopropoxy-pyridin-4-yl)-2-((R)-3-methylmorpholin-4-yl)-6-trifluoromethyl-6,7,8,9-tetrahydro-pyrimido[1,2-a]-pyrimidin-4-one], the IC50 is < 0.01 µM.
Turning to `Cc1cc(C(=O)CN2c3nc(N4CCOC[C@H]4C)cc(=O)n3CC[C@H]2C(F)(F)F)no1` [Example 311, (S)-9-[2-(5-Methyl-isoxazol-3-yl)-2-oxo-ethyl]-2-((R)-3-methyl-morpholin-4-yl)-8-trifluoromethyl-6,7,8,9-tetrahydro-pyrimido[1,2-a]-pyrimidin-4-one], the IC50 was < 0.01 µM.
Consider `CCC(=O)CN1CC[C@H](C(F)(F)F)n2c1nc(N1CCOC[C@H]1C)cc2=O` [Example 26, (R)-2-((R)-3-Methyl-morpholin-4-yl)-9-(2-oxobutyl)-6-trifluoromethyl-6,7,8,9-tetrahydro-pyrimido[1,2-a]-pyrimidin-4-one], for which the IC50 is < 0.01 µM.
For the compound `C[C@@H]1COCCN1c1cc(=O)n2c(n1)N(CC(O)c1ccccn1)[C@H](C(F)(F)F)CC2` (single isomer, unassigned) [Example 212], the IC50 is < 0.01 µM.
On to `C[C@@H]1COCCN1c1nc2n(c(=O)c1F)CC[C@@H](C(F)(F)F)N2CC(=O)N1CCCCO1` [Example 317, (S)-3-Fluoro-2-((R)-3-methylmorpholin-4-yl)-9-(2-[1,2]oxazinan-2-yl-2-oxoethyl)-8-trifluoromethyl-6,7,8,9-tetrahydropyrimido-[1,2-a]pyrimidin-4-one], for which the IC50 was < 0.01 µM.
As for `C[C@@H]1COCCN1c1nc2n(c(=O)c1F)CC[C@@H](C(F)(F)F)N2CC(=O)c1cccnc1` [Example 50, (S)-3-Fluoro-2-((R)-3-methylmorpholin-4-yl)-9-(2-oxo-2-pyridin-3-ylethyl)-8-trifluoromethyl-6,7,8,9-tetrahydro-pyrimido[1,2-a]-pyrimidin-4-one], the IC50 was < 0.01 µM.
On to `C[C@@H]1COCCN1c1nc2n(c(=O)c1F)CC[C@@H](C(F)(F)F)N2c1ccc(C(F)F)nc1` [Example 53, (S)-9-(6-Difluoromethylpyridin-3-yl)-3-fluoro-2-((R)-3-methylmorpholin-4-yl)-8-trifluoromethyl-6,7,8,9-tetrahydro-pyrimido[1,2-a]-pyrimidin-4-one], for which the IC50 was < 0.01 µM.
Under `CC1CN(c2cc(=O)n3c(n2)N(CC(=O)C(C)C)[C@H](C(F)(F)F)CC3)CCO1` (stereo partly drawn) [Example 320, (S)-2-(2-Methyl-morpholin-4-yl)-9-(3-methyl-2-oxobutyl)-8-trifluoromethyl-6,7,8,9-tetrahydropyrimido-[1,2-a]pyrimidin-4-one] stands 0.01 to 0.1 µM; under `C[C@@H]1COCCN1c1cc(=O)n2c(n1)N(Cc1ccnc(Cl)c1)[C@](C)(C(F)(F)F)C2` [Example 181, (S)-1-(2-Chloro-pyridin-4-ylmethyl)-2-methyl-7-((R)-3-methylmorpholin-4-yl)-2-trifluoromethyl-2,3-dihydro-1H-imidazo[1,2-a]-pyrimidin-5-one], < 0.01 µM; under `COc1cc(N2c3nc(N4CCOC[C@H]4C)cc(=O)n3CC[C@H]2C(F)(F)F)ccn1` [Example 80, (S)-9-(2-Methoxy-pyridin-4-yl)-2-((R)-3-methylmorpholin-4-yl)-8-trifluoromethyl-6,7,8,9-tetrahydro-pyrimido[1,2-a]-pyrimidin-4-one], < 0.01 µM.
For `C[C@@H]1COCCN1c1cc(=O)n2c(n1)N(CC(=O)C1CCOCC1)[C@](C)(C(F)(F)F)C2` [Example 190, (S)-2-Methyl-7-((R)-3-methylmorpholin-4-yl)-1-[2-oxo-2-(tetrahydro-pyran-4-yl)ethyl]-2-trifluoromethyl-2,3-dihydro-1H-imidazo[1,2-a]-pyrimidin-5-one], the IC50 is < 0.01 µM.
Consider `C[C@@H]1COCCN1c1cc(=O)n2c(n1)N(Cc1cn3ccccc3n1)[C@H](C(F)(F)F)CC2` [Example 64, (S)-9-Imidazo[1,2-a]-pyridin-2-ylmethyl-2-((R)-3-methyl-morpholin-4-yl)-8-trifluoromethyl-6,7,8,9-tetrahydro-pyrimido[1,2-a]-pyrimidin-4-one], for which the half-inhibitory concentration (IC50) is > 0.1 µM.
In the case of `C[C@@H]1COCCN1c1cc(=O)n2c(n1)N(Cc1ccc(F)cn1)[C@H](C(F)(F)F)CC2` [Example 92, (S)-9-(5-Fluoropyridin-2-ylmethyl)-2-((R)-3-methylmorpholin-4-yl)-8-trifluoromethyl-6,7,8,9-tetrahydro-pyrimido[1,2-a]-pyrimidin-4-one], the IC50 was < 0.01 µM.
With `CC(C)CC(=O)CN1c2nc(N3CCOC[C@H]3C)cc(=O)n2CC[C@H]1C(F)(F)F` [Example 276, (S)-2-((R)-3-Methyl-morpholin-4-yl)-9-(4-methyl-2-oxo-pentyl)-8-trifluoromethyl-6,7,8,9-tetrahydro-pyrimido[1,2-a]-pyrimidin-4-one], the IC50 was < 0.01 µM.
`C[C@@H]1COCCN1c1cc(=O)n2c(n1)N(Cc1cccc(F)n1)[C@H](C(F)(F)F)CC2` [Example 224, (S)-9-(6-Fluoropyridin-2-ylmethyl)-2-((R)-3-methylmorpholin-4-yl)-8-trifluoromethyl-6,7,8,9-tetrahydro-pyrimido[1,2-a]-pyrimidin-4-one]: the IC50 was < 0.01 µM.
